Literature values in patent US12290522B2, “Method of treating amyotrophic lateral sclerosis” (Woolsey Pharmaceuticals, Inc., priority 2021, dated 2025).

Settings: in vivo; 1-hydroxy metabolite; Shibuya 2001; cited from earlier work

For O=S(=O)(c1cccc2c(O)nccc12)N1CCCNCC1 [M3], the half-life is listed as “about 8 hours”.
